Read-outs that look alike come from different tables or passages of the source.
Legend:
[1] = ether bond, 13-membered ring, 100.0 °C
[2] = ether bond, 13-membered ring, 100.0 °C; remark: listed apart in the source

Question: Which ring closure, yield after HPLC ([1]; from CCOC(=O)C[C@H](NC(=O)C(c1cccc(Br)c1)n1cc(CCN2CC(F)C2)c(C(F)(F)F)cc1=O)c1cc(-c2c(C)cc(Cl)cc2O)cc(C(F)(F)F)c1F, CuI/(1R,2R)-N1,N2-dimethylcyclohexane-1,2-diamine/K2CO3, dioxane, 34.0 mM, 4.0 h) does the source give for `CCOC(=O)C[C@@H]1NC(=O)C(n2cc(CCN3CC(F)C3)c(C(F)(F)F)cc2=O)c2cccc(c2)Oc2cc(Cl)cc(C)c2-c2cc1c(F)c(C(F)(F)F)c2` (some centres unmarked) here?
Answer: 33%

Question: With `CCOC(=O)C[C@@H]1NC(=O)C(n2ccc3ccoc3c2=O)c2cc(ccc2F)Oc2cccc(C)c2-c2cc(C)c(F)c1c2` (stereo in doubt) as the compound, how does the ring closure, yield after HPLC ([1]; from CCOC(=O)C[C@H](NC(=O)C(c1cc(Br)ccc1F)n1ccc2ccoc2c1=O)c1cc(-c2c(C)cccc2O)cc(C)c1F, CuI/(1R,2R)-N,N'-dimethylcyclohexane-1,2-diamine/K2CO3, 1,4-dioxane, 37.5 mM, 4.0 h) read?
Answer: 50.9%

Question: For `CCOC(=O)C[C@@H]1NC(=O)C(n2ccc3occc3c2=O)c2cc(ccc2F)Oc2cccc(C)c2-c2cc(C)c(F)c1c2` (some centres unmarked), which ring closure, yield after HPLC ([1]; from CCOC(=O)C[C@H](NC(=O)C(c1cc(Br)ccc1F)n1ccc2occc2c1=O)c1cc(-c2c(C)cccc2O)cc(C)c1F, CuI/(1S,2S)-N,N'-dimethylcyclohexane-1,2-diamine/K2CO3, dioxane, 30.0 mM, 4.0 h) is on record?
Answer: 36.3%

Question: For `CCOC(=O)C[C@@H]1NC(=O)C(n2cccc(-c3ccccc3)c2=O)c2cc(ccc2F)Oc2cccc(C)c2-c2cc(C)c(F)c1c2` (some centres unmarked), which ring closure, yield after HPLC ([1]; from CCOC(=O)C[C@H](NC(=O)C(c1cc(Br)ccc1F)n1cccc(-c2ccccc2)c1=O)c1cc(-c2c(C)cccc2O)cc(C)c1F, CuI/(1R,2R)-N,N'-dimethylcyclohexane-1,2-diamine/K2CO3, dioxane, 70.0 mM, 2.0 h) is on record?
Answer: 48.2%

Question: For `CCOC(=O)C[C@@H]1NC(=O)C(n2cc(CCN3CC(F)C3)c(C(F)(F)F)cc2=O)c2cccc(c2)Oc2cc(C3CC3)cc(C)c2-c2cc1c(F)c(C(F)(F)F)c2` (some centres unmarked), which ring closure, yield after HPLC ([1]; from CCOC(=O)C[C@H](NC(=O)C(c1cccc(Br)c1)n1cc(CCN2CC(F)C2)c(C(F)(F)F)cc1=O)c1cc(-c2c(C)cc(C3CC3)cc2O)cc(C(F)(F)F)c1F, CuI/(1R,2R)-N1,N2-dimethylcyclohexane-1,2-diamine/K2CO3, dioxane, 40.0 mM, 16.0 h) is on record?
Answer: 31.4%

Question: For `CCOC(=O)C[C@@H]1NC(=O)C(n2cc(CCN3CC(F)C3)c(C(F)(F)F)cc2=O)c2cccc(c2)Oc2cc(C(F)(F)F)cc(C)c2-c2cc1c(F)c(C(F)(F)F)c2` (some centres unmarked), which ring closure, isolated yield ([2]; from CCOC(=O)C[C@H](NC(=O)C(c1cccc(Br)c1)n1cc(CCN2CC(F)C2)c(C(F)(F)F)cc1=O)c1cc(-c2c(C)cc(C(F)(F)F)cc2O)cc(C(F)(F)F)c1F, CuI/(1R,2R)-N1,N2-dimethylcyclohexane-1,2-diamine/K2CO3, dioxane, 22.0 mM, 16.0 h) is on record?
Answer: 38.4%

Question: For `CCOC(=O)C[C@@H]1NC(=O)C(n2cc(CCCN(C)C)c(C(F)(F)F)cc2=O)c2cc(ccc2F)Oc2cccc(C)c2-c2cc(C)c(F)c1c2` (stereo in doubt), which ring closure, isolated yield ([2]; from CCOC(=O)C[C@H](NC(=O)C(c1cc(Br)ccc1F)n1cc(CCCN(C)C)c(C(F)(F)F)cc1=O)c1cc(-c2c(C)cccc2O)cc(C)c1F, CuI/K2CO3/(1R,2R)-N1,N2-dimethylcyclohexane-1,2-diamine, 1,4-dioxane, 62.0 mM, 16.0 h) is on record?
Answer: 55.6%

Question: Which ring closure, isolated yield ([2]; the molecule shown is the open-chain precursor, CuI/(1R,2R)-N1,N2-dimethylcyclohexane-1,2-diamine/K2CO3, dioxane, 15.0 mM) does the source give for `CCOC(=O)C[C@H](NC(=O)C(c1cc(Cl)cc(Br)c1)n1cc(CCN2CC(F)C2)c(C(F)(F)F)cc1=O)c1cc(-c2c(C)cccc2O)cc(C)c1F` (some centres unmarked) here?
Answer: 66.5%

— patent publication US20240279214A1, “ALPHA4 BETA7 INEGRIN ANTAGONISTS AND USES THEREOF” (XinThera, Inc., priority 2022, published 2024)
